These results are taken from ChEMBL document CHEMBL1287670, “Discovery and synthesis of 6,7,8,9-tetrahydro-5H-pyrimido-[4,5-d]azepines as novel TRPV1 antagonists” (Bioorg Med Chem Lett, 2010).

SMILES strings stand for the structures. Converted amounts (≈) assume the structure as drawn. The source made the active and inactive calls. No cut-off for these calls is given here. Where only a bound is given, the exact number is not on record here.

In general, bioavailability refers to dose-corrected exposure relative to a reference, in per cent. A lower bioavailability goes with little systemic uptake. As a reminder, the AUC(0-inf) is the area under the concentration-time curve extrapolated to infinity. Read a low AUC(0-inf) as low exposure. As a reminder, the thermodynamic solubility is the concentration in solution at equilibrium with solid. Broadly, the Cmax is the highest concentration seen after dosing. The term half-life denotes how long it takes for the measured level to halve. Usually IC50 stands for the point on the concentration scale where inhibition reaches its midpoint. Usually Ki stands for a measure of affinity in units of concentration, obtained from inhibition or displacement.

A short description of series [1]: Bioavailability in fasted Sprague-Dawley rat at 1 mg/kg, iv or 5 mg/kg, po. The series is classed as ADME, organism-based. The settings on record: in vivo.
In another series the test system is Rattus norvegicus. As to the kind of experiment: Antihyperalgesic activity against carrageenan-induced thermal hyperalgesia in rat assessed as paw withdrawal latency at 30 mg/kg, po administered 1 hr before carrageenan challenge. The format is functional, organism-based. Further details: dose 30 mg/kg.
Series [2] can be described thus: Volume of distribution at steady state in fasted Sprague-Dawley rat at 1 mg/kg, iv or 5 mg/kg, po. The format is ADME, organism-based. The following applies: in vivo, read-out: Vdss.
Series [3] can be described thus: Clearance in fasted Sprague-Dawley rat at 1 mg/kg, iv or 5 mg/kg, po. The format is ADME, organism-based. The settings on record: in vivo.
The nature of series [4]: AUC (infinity) in fasted Sprague-Dawley rat at 1 mg/kg, iv. The series is classed as ADME, organism-based. Details: time infinity, dose 1 mg/kg, route intravenous. The following applies: plasma.
Series [5] in a line: AUC (infinity) in fasted Sprague-Dawley rat at 5 mg/kg, po. The format is ADME, organism-based. Details: time infinity, dose 5 mg/kg, route oral. The following applies: plasma.
Series [6] in a line: Aqueous equilibrium solubility of the compound in fasted-state simulated intestinal fluid at pH 6.8 by HPLC. The format is physicochemical.
Series [7] is described as follows: Cmax in fasted Sprague-Dawley rat at 1 mg/kg, iv or 5 mg/kg, po. The following applies: in vivo. The format is ADME, organism-based.
Series [8] is described as follows: Aqueous equilibrium solubility of the compound at pH 2 by HPLC. The series is classed as physicochemical. The following applies: aqueous medium.
Series [9] in a line: Half life in fasted Sprague-Dawley rat at 1 mg/kg, iv or 5 mg/kg, po. The format is ADME, organism-based. The settings on record: in vivo.
The target in series [10] is T1, Transient receptor potential cation channel subfamily V member 1 (Homo sapiens, UniProt Q8NER1). As to the kind of experiment: Antagonist activity at human recombinant TRPV1 assessed as inhibition of capsaicin-induced in intracellular calcium levels by cell-based FLIPR assay. The series is classed as functional. (Calcium flux is commonly read through the fluorescence of an indicator in the cells.)

In series [11] the target is Transient receptor potential cation channel subfamily V member 1 (Rattus norvegicus, UniProt O35433). As to the kind of experiment: Binding affinity to rat TRPV1.
The target of series [12] is T1, Transient receptor potential cation channel subfamily V member 1. As to the kind of experiment: Binding affinity to human recombinant TRPV1.

T1 sequence (Q8NER1 whole entry): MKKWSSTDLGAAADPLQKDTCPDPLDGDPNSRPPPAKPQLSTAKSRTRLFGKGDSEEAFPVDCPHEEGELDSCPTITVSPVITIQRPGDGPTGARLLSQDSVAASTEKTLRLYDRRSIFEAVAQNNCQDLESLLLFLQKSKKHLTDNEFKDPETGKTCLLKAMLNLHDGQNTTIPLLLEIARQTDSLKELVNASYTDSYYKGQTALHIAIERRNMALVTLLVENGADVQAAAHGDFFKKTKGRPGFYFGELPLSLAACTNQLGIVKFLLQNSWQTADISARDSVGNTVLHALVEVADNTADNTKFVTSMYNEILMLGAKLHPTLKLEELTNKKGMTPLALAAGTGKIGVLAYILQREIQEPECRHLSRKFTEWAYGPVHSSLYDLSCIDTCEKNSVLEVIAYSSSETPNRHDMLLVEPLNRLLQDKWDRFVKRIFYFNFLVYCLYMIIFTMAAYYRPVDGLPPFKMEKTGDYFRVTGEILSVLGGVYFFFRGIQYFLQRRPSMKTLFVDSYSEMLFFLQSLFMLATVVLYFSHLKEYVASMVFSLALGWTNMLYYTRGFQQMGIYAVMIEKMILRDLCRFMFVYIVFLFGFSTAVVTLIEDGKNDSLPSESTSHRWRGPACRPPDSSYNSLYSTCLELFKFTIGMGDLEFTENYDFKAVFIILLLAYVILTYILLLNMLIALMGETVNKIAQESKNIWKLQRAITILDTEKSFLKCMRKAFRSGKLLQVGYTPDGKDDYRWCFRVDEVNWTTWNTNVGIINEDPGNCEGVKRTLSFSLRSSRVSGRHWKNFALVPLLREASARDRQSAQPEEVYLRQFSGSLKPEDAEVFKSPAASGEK
Sequence of Transient receptor potential cation channel subfamily V member 1 (Rattus norvegicus, UniProt O35433) (O35433 whole entry): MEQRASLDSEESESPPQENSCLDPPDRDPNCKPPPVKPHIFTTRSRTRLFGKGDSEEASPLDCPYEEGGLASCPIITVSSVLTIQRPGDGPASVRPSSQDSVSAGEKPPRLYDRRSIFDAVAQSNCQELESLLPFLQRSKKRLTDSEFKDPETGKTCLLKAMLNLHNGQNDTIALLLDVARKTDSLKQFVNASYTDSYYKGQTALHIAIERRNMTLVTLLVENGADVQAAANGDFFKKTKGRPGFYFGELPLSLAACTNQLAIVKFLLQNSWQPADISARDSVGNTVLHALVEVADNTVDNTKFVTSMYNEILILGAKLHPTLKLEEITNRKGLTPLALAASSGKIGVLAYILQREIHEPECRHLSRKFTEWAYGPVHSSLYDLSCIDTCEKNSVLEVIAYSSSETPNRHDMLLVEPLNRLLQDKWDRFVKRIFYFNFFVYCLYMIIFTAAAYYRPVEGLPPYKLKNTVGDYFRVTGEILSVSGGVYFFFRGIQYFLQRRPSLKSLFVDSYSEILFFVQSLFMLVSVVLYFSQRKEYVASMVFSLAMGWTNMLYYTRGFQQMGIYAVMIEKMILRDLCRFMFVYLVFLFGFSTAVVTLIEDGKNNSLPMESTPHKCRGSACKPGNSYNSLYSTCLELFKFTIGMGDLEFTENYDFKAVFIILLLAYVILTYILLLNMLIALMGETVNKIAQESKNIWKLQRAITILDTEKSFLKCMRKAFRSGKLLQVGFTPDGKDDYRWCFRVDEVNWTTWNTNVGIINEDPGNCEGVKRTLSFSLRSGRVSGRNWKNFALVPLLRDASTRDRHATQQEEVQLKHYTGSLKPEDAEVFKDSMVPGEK

Compound `FC(F)(F)c1ccc(Nc2nc(N3CCOCC3)nc3c2CCN(c2ncccc2C(F)(F)F)CC3)cc1` gave a bioavailability in series [1] of 14%. In addition, the result in the series on Rattus norvegicus was Active. Also, the Vd in series [2] was 4.7 L/kg. Besides, in series [3], the clearance was 51.7 mL/min/kg. Further, the total exposure AUC(0-inf) in series [4] stood at 322 ng·h/mL; in series [5], 236 ng·h/mL. The figures for the thermodynamic solubility in series [6] and in series [8] were 0.5 µg/mL (≈ 0.929 µM) and 5 µg/mL (≈ 9.29 µM), respectively. Moreover, the Cmax in [7] amounted to 160 nM. Also, the half-life in series [9] was 66 min.

Regarding `CC(C)(C)c1ccc(Nc2ncnc3c2CN(c2ncccc2C(F)(F)F)CC3)cc1`, the IC50 in series [10] is over 10000 nM.

Take `CC(C)(C)c1ccc(Nc2ncnc3c2CCCN(c2ncccc2C(F)(F)F)C3)cc1`: the IC50 in [10] stood at 2040 nM.

`O=C(O)c1cnc(N2CCc3nc(N4CCCCC4)nc(Nc4ccc(C(F)(F)F)cc4)c3CC2)c(Cl)c1` yielded a thermodynamic solubility in series [6] of 218 µg/mL (≈ 399 µM). In series [10], the concentration for half-maximal inhibition (IC50) is 462 nM.

As for `CC(C)(C)c1ccccc1Nc1ncnc2c1CCN(c1ncccc1C(F)(F)F)C2`, the 50% inhibitory concentration (IC50) in series [10] was over 20000 nM.

Turning to `COC(=O)c1cnc(N2CCc3nc(N4CCOCC4)nc(Nc4ccc(C(F)(F)F)cc4)c3CC2)c(Cl)c1`, the half-inhibitory concentration (IC50) in series [10] is 176 nM.

In series [11], `C=C(C)C12C[C@@H](C)[C@@]34O[C@](Cc5ccccc5)(O[C@@H]1[C@@H]3C=C(COC(=O)Cc1ccc(O)c(OC)c1)C[C@]1(O)C(=O)C(C)=C[C@@H]41)O2` (single isomer, unassigned) [RESINIFERATOXIN] returned an IC50 of 180 nM. Further, the Ki in [12] turned out to be 14 nM.

For the compound `FC(F)(F)c1cccc(Nc2ncnc3c2CCN(c2ncccc2C(F)(F)F)C3)c1`, the IC50 in series [10] was 1450 nM.

Turning to `Cc1nc2c(c(Nc3ccc(C(C)(C)C)cc3)n1)CCN(c1ncccc1C(F)(F)F)C2`, in series [10], the IC50 worked out at 80 nM.

On to `CC(C)c1nc2c(c(Nc3ccc(C(C)(C)C)cc3)n1)CCN(c1ncccc1C(F)(F)F)C2`, for which the IC50 in series [10] was found to be 18 nM.

For the compound `CC(C)(C)c1ccc(Nc2ncnc3c2CCN(c2ncccc2C(F)(F)F)C3)cc1`, in series [10], the IC50 amounted to 9 nM.

Take `CC(C)(C)c1cccc(Nc2ncnc3c2CCN(c2ncccc2C(F)(F)F)C3)c1`: the half-inhibitory concentration (IC50) in series [10] was found to be 520 nM.

For `COc1nc(Nc2nc(C(C)C)nc3c2CCN(c2ncccc2C(F)(F)F)CC3)ccc1C(F)(F)F`, in series [10], the 50% inhibitory concentration (IC50) was 2460 nM.
